In patent publication US9999614B2, “Combination for the prophylaxis and treatment of behavioural, mental, and cognitive disorders” (LTD “VALENTA-INTELLEKT”, priority 2012, dated 2018):

System: amnesia in mice, as caused by scopolamine
Test: CPAR, model of amnesia caused by scopolamine
Format: in vivo
Settings: scopolamine 1 mg/kg i.p.
Experimental: For this, the active substances Melatonin 3 mg/Memantin 10 mg, Melatonin 5 mg/Memantin 20 mg, Melatonin 10 mg/Memantin 20 mg were taken, and doses recommended for human beings were converted into doses adapted for mice according to the formula “(active substance/70(average weight of a human being))×7”. Then the compositions were dissolved in 5 mL of the solution and, according to the given formula, introduced to animals intraperitoneally once a day for 5 days.
The CPAR test is the main model for evaluating substance influences on formation and replication of short-time memory in a normal condition and in an abnormal condition, i.e., induced amnesia. The CPAR is the most informative method among the methods that are used today for evaluating efficiency of substances with influence on the CNS of mammals (see, “Manual for Experimental (Pre-Clinical) Studies of New Pharmacological Substances”, 2000). The CPAR (conditioned passive avoidance reflex in a dark, light chamber) was taught to the mice on the basis of electrodermal response according to the method proposed by Cumin et al. (1982) with due regard to the recommendations given by Mondadori et al. (1990). The installation for mice, as produced by Lafayette Instrument Co., USA, was a black chamber with the electrode floor and a white plastic platform that was arranged on the floor in the center of the chamber. The mice, one by one, were put onto the plastic platform. The animals went/jumped down onto the electrode floor where they received an electric current shock, i.e., punishment. Electric current was supplied after the time when an animal stood on the floor with all its four legs. The natural response of the animals is to go back to the current-free or safe platform. […] Tests for memorizing CPAR were conducted in successive time intervals after amnesic action. In a case where an animal went/jumped down onto the platform within 1 minute, it was recorded as having retrograde amnesia of the passive avoidance skill. The compositions were studied in comparison with Melatonin 5 mg (mono-use) and Memantin 10 mg (mono-use), according to the above formula for adapting to animal models.
The compositions under study were dissolved in 5 mL of the solution and, according to the above formula, introduced to the animals intraperitoneally, once a day for 5 days.

[1] = 1 day after teaching, Melatonin 5 mg, Memantin 10 mg mono-use

CN1[C@@H]2C[C@@H](OC(=O)[C@H](CO)c3ccccc3)C[C@H]1[C@@H]1O[C@@H]12 [Scopolamine]
Latent time of entering into the dark chamber [1]: 72.3 ± 25.6 s | Number of mice not entered into the dark chamber, % [1]: 25% | Number of mice not entered into the dark chamber, % (3 days after teaching, Melatonin 5 mg, Memantin 10 mg mono-use): 33.3% | Number of mice not entered into the dark chamber, % (7 days after teaching, Melatonin 5 mg, Memantin 10 mg mono-use): 41.6% | Number of mice not entered into the dark chamber, % (10 days after teaching, Melatonin 5 mg, Memantin 10 mg mono-use): 50% | CPAR amnesia observed, % of the animals (in 24 hours, p<0.001): 90% | Number of mice taught to CPAR (%) (agents i.p. once a day for 5 days, Melatonin 5 mg, Memantin 10 mg mono-use): 58.3%
